Laboratory results reported in patent publication US7910612B2, “4-oxy-N-[1,3,4]-thiadiazol-2-yl-benzene sulfonamides, pharmaceutical compositions and methods for their therapeutic use” (Sanofi-Aventis, priority 2005, dated 2011).

molecular target: T1, human PPARdelta (Homo sapiens, UniProt Q03181); experiment: cellular PPARdelta assay (stably transfected HEK luciferase reporter cell line); assay type: cell-based
T1 construct: amino acids S139-Y441; expressed in transfected cells; host or cells: HEK (human embryo kidney) cells, stably transfected, pcDNA3 vector
T1 sequence (Q03181 139-441): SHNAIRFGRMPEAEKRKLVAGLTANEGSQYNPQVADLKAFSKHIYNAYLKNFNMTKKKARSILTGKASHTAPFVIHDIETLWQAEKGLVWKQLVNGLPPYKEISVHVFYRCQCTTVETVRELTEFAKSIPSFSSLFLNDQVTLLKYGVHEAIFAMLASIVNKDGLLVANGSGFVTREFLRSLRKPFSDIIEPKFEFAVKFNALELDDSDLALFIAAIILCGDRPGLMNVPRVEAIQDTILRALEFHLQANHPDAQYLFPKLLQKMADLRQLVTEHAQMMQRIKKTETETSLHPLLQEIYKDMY
Experimental: The potency of substances which bind to human PPARdelta and activate it in an agonistic manner is analyzed using a stably transfected HEK cell line (HEK=human embryo kidney) which is referred to here as PPARdelta reporter cell line. In analogy to the assay described for PPARalpha, the PPARdelta reporter cell line also contains two genetic elements, a luciferase reporter element (pdeltaM-GAL4-Luc-Zeo) and a PPARdelta fusion protein (GR-GAL4-humanPPARdelta-LBD) which mediates expression of the luciferase reporter element depending on a PPARdelta ligand. The stably and constitutively expressed fusion protein GR-GAL4-humanPPARdelta-LBD binds in the cell nucleus of the PPARdelta reporter cell line via the GAL4 protein portion to the GAL4 DNA binding motifs 5′-upstream of the luciferase reporter element which is stably integrated in the genome of the cell line. There is only little expression of the luciferase reporter gene in the absence of a PPARdelta ligand if fatty acid-depleted fetal calf serum (cs-FCS) is used in the assay. PPARdelta ligands bind and activate the PPARdelta fusion protein and thereby stimulate expression of the luciferase reporter gene. The luciferase which is formed can be detected by means of chemiluminescence via an appropriate substrate.
The production of the stable PPARdelta reporter cell line is based on a stable HEK-cell clone which was stably transfected with a luciferase reporter element. This step was already described above in the section “construction of the PPARalpha reporter cell line”. In a second step, the PPARdelta fusion protein (GR-GAL4-humanPPARdelta-LBD was stably introduced into this cell clone. For this purpose, the cDNA coding for the N-terminal 76 amino acids of the glucocorticoid receptor (Accession #P04150) was linked to the cDNA section coding for amino acids 1-147 of the yeast transcription factor GAL4 (Accession #P04386). The cDNA of the ligand-binding domain of the human PPARdelta receptor (amino acids S139-Y441; Accession #L07592) was cloned in at the 3′-end of this GR-GAL4 construct. The fusion construct prepared in this way (GR-GAL4-humanPPARdelta-LBD) was recloned into the plasmid pcDNA3 (Invitrogen) in order to enable constitutive expression by the cytomegalovirus promoter. This plasmid was linearized with a restriction endonuclease and stably transfected into the previously described cell clone containing the luciferase reporter element. The resulting PPARdelta reporter cell line which contains a luciferase reporter element and constitutively expresses the PPARdelta fusion protein (GR-GAL4-human PPARdelta-LBD) was isolated by selection with zeocin (0.5 mg/ml) and G418 (0.5 mg/ml).
The activity of PPARdelta agonists is determined in a 3-day assay in exact analogy to the procedure already described for the PPARalpha reporter cell line except that the PPARdelta reporter cell line and a specific PPARdelta agonist was used as a standard to control test efficacy. […] Compounds of the invention of the formula I activate the PPARdelta receptor.

EC50 | SMILES
650 nM | COc1ccc(-c2nc(COc3ccc(S(=O)(=O)Nc4nnc(C(C)C)s4)cc3)co2)cc1 [Example 13, N-(5-Isopropyl-[1,3,4]thiadiazol-2-yl)-4-[2-(4-methoxy-phenyl)-oxazol-4-ylmethoxy]-benzenesulfonamide]
480 nM | COc1ccc2c(COc3ccc(S(=O)(=O)Nc4nnc(C(C)C)s4)cc3)coc2c1 [Example 3, N-(5-Isopropyl-[1,3,4]thiadiazol-2-yl)-4-(6-methoxy-benzofuran-3-ylmethoxy)-benzenesulfonamide]
370 nM | Cc1nc(-c2ccc(C(F)(F)F)cc2)sc1COc1ccc(S(=O)(=O)Nc2nnc(C(C)C)s2)cc1 [Example 1, N-(5-Isopropyl-[1,3,4]thiadiazol-2-yl)-4-[4-methyl-2-(4-trifluoromethyl-phenyl)-thiazol-5-ylmethoxy]-benzenesulfonamide]
260 nM | COc1ccc(-c2nc(COc3ccc(S(=O)(=O)Nc4nnc(C(C)C)s4)cc3)no2)cc1 [Example 9, N-(5-Isopropyl-[1,3,4]thiadiazol-2-yl)-4-[5-(4-methoxy-phenyl)-[1,2,4]oxadiazol-3-ylmethoxy]-benzenesulfonamide]
1130 nM | CC(C)c1nnc(NS(=O)(=O)c2ccc(OCc3ccc(Oc4ccc(C(F)(F)F)cc4)cc3)cc2)s1 [Example 4, N-(5-Isopropyl-[1,3,4]thiadiazol-2-yl)-4-[4-(4-trifluoromethyl-phenoxy)-benzyloxy]-benzenesulfonamide]
670 nM | CCc1oc(-c2cccc(C(F)(F)F)c2)nc1COc1ccc(S(=O)(=O)Nc2nnc(C(C)C)s2)cc1 [Example 14, 4-[5-Ethyl-2-(3-trifluoromethyl-phenyl)-oxazol-4-ylmethoxy]-N-(5-isopropyl-[1,3,4]thiadiazol-2-yl)-benzenesulfonamide]
